Data reported in US10912769B2, “1-[(pyridin-3-yl-sulfonyl)-1H-pyrrol-3-yl] methanamine derivative and pharmaceutical composition and use thereof” (Jiangsu Jibeier Pharmaceutical Co. Ltd., priority 2016, dated 2021).
Counter-ions that a name gives are not always drawn. Like-named read-outs stand apart in the source and are kept apart here. Marks after values point to notes of the source that are not given here.

Key:
[1] = tested on: basal gastric acid secretion in rats; experiment: Inhibitory test of basal gastric acid secretion in pylorus-ligated rats after intragastric administration; type: in vivo, SD rats; settings: for Inhibitory rate (basal gastric acid secretion) / Amount of gastric juice / Total acid amount of the gastric juice: n = 10; for Amount of gastric juice: pylorus ligation 1 h after administration, gastric juice collected after 4 h; for Amount of gastric juice / Total acid amount of the gastric juice: X ± S; for Total acid amount of the gastric juice: titration with 0.01 mol/L NaOH; for Effect on the total acid amount of the gastric juice as compared with the model control group: I-1a 2 mg/kg and 1 mg/kg, vonoprazan fumarate 2 mg/kg, P<0.05 or P<0.01
Source text: An equal amount of deuterated vonoprazan fumarate derivatives I-1a, I-2a, I-3a and I-4a prepared and obtained in the Examples and vonoprazan fumarate (vonoprazan was 1-[5-(2-fluorophenyl)-1-(pyridin-3-yl-sulfonyl)-1H-pyrrol-3-yl]-N-methylmethanamine) were taken respectively and subjected to the inhibitory activity test on gastric acid secretion in rats.
SD rats which were SPF grade and weighed 180 to 200 g were selected and used in this experiment. The rats were grouped randomly with 10 rats in each group (half male and half female). Animals were fasted but free to access water for 16 hours. 1 hour after administration, the animals were anesthetized with isoflurane and fixed in a supine position. The abdomen was shaved and disinfected routinely. A 1.5 cm incision was made along the midline and below the xiphoid, the stomach was taken gently, the gastric pylorus was ligated with surgical suture at the junction of the stomach pylorus and the duodenum, and the incision was sutured. The animals were fasted and water-deprived after the surgery. After 4 hours, the animals were anesthetized by intra-abdominally injecting 1% sodium pentobarbital. The incision was opened, and the gastric cardia was ligated. The stomach was taken out and cut open along the greater curvature of stomach. The gastric juice was collected and centrifuged at 3000 rpm for 10 minutes. The supernatant was aspirated and the volume of the gastric juice was measured. 0.5 mL of the gastric juice was taken and placed in a small conical flask, a drop of phenolphthalein indicator was added, and the mixture was titrated with 0.01 mol/L sodium hydroxide until the red color appeared (the color was no longer deepened) as the endpoint. The total amount of gastric acid was calculated according to the following formula. The average secretion amount of the gastric juice and the total acid amount of the gastric juice of each administered group and the model control group were subjected to statistical tests.
The inhibitory test of basal gastric acid secretion in rats was carried out after intragastric administration of the vonoprazan fumarate derivatives and vonoprazan fumarate, and the results were as shown in Table 1 and FIG. 1. […] The inhibitory effects of the vonoprazan fumarate derivative (Compound I-1a) with a dosage of 2 mg/kg on the secretion amount of gastric juice and the total acid amount of the gastric juice in rats were stronger than that of the same dosage (2 mg/kg) of vonoprazan fumarate, and there was a significant difference between the two (P<0.05). As compared with vonoprazan fumarate, the vonoprazan fumarate derivatives had stronger inhibitory effect on the gastric acid secretion in rats at the same dosage.

[2] = Pharmacokinetic experiment in rats after single intragastric administration (plasma LC-MS/MS); type: in vivo; settings: both sexes, SD, rat, po, 2 mg/kg intragastric; for AUC(0-inf) / Cmax / Tmax / half-life: n = 6; for bioavailability: n = 6, read-out: F (absolute bioavailability); for AUC(0-t): 2 mg/kg
Protocol: An equal amount of Compound I-1a (1-[5-(2-fluorophenyl)-1-(pyridin-3-yl-sulfonyl)-1H-pyrrol-3-yl]-N-methyldideuteromethanamine fumarate) prepared and obtained in the Example and vonoprazan fumarate were taken respectively and subjected to a pharmacokinetic experiment.
Drug formulating manner: 16 mg of the drug (the vonoprazan fumarate derivatives or vonoprazan fumarate) was weighed and taken, and dissolved in 2 mL of N-methylpyrrolidone. 38 mL of 5% glucose injection was further added thereto to prepare a dosing solution with a concentration of 0.4 mg/mL and the dosing solution was administered by intragastric administration.
Intragastric administration: 6 SD rats (half male and half female) were taken and orally administered as a single dose (2 mg/kg). Blood samples was collected after administration, and the time points of blood collection were 0.083 hours, 0.25 hours, 0.5 hours, 1 hour, 2 hours, 3 hours, 4 hours, 6 hours, 8 hours, 12 hours, 24 hours, 36 hours, and 48 hours after the administration.
Sample collection: 200 μL of whole blood was taken at each time point of blood collection, heparin was added for anticoagulation, and the mixture was centrifuged at 12000 rpm for 5 min at 4° C. 50 μL of the plasma was taken and placed in a polypropylene tube, and the rest was used for backup and stored at −20° C. to be tested.
Plasma treatment method: To 50 μL of rat plasma anticoagulated by heparin, 50 μL of methanol and […], of a solution of the internal standard etofesalamide in methanol (10 ng/mL) were added. The mixture was vortexed for 1 min and centrifuged at 12000 rpm for 10 min at 4° C. 100 μL of the supernatant was taken and placed in a vial insert, and 1 μL of the supernatant was injected for LC-MS/MS analysis.
The pharmacokinetic parameters were calculated by non-compartment model statistical moment method using WinNonlin 6.3 software.

[3] = mean, n = 6, read-out: AUC0-6 h

Row | SMILES | Inhibitory rate (basal gastric acid secretion) ([1]; 2 mg/kg intragastric) [%] | Inhibitory rate (basal gastric acid secretion) ([1]; 1 mg/kg intragastric) [%] | Amount of gastric juice ([1]; 1 mg/kg intragastric) [mL] | Total acid amount of the gastric juice ([1]; 1 mg/kg intragastric) [µmol] | Amount of gastric juice ([1]; 2 mg/kg intragastric) | Total acid amount of the gastric juice ([1]; 2 mg/kg intragastric) | Effect on the total acid amount of the gastric juice as compared with the model control group [1] | AUC(0-inf) ([2]; mean) [ng·h/mL] | Cmax ([2]; mean) [ng/mL] | Tmax ([2]; mean) [min] | half-life ([2]; mean) [min] | bioavailability [2] [%] | AUC(0-t) [2, 3] [ng·h/mL] | AUC(0-t) ([2]; read-out: AUC0-t in the plasma) [ng·h/mL] | other results
1 | O=C(O)/C=C/C(=O)O.[2H]c1nc([2H])c(S(=O)(=O)n2cc(C([2H])([2H])NC([2H])([2H])[2H])cc2-c2ccccc2F)c([2H])c1[2H] [Compound I-4a, 1-[5-(2-fluorophenyl)-1-(tetradeuteropyridin-3-yl-sulfonyl)-1H-pyrrol-3-yl]-N-trideuteromethyldideuteromethanamine fumarate] | 97.4 |  |  |  |  |  |  |  |  |  |  |  |  |  | 
2 | CNCc1cc(-c2ccccc2F)n(S(=O)(=O)c2cccnc2)c1 [vonoprazan fumarate, reference compound] | 73.8 | 43.1 | 3.1 ± 1.2 | 184.2 ± 83.4 | 3.0 ± 1.3 mL | 84.9 ± 83.2 µmol | significant inhibitory effect |  |  |  |  |  |  |  | 
3 | O=C(O)/C=C/C(=O)O.[2H]C([2H])([2H])NC([2H])([2H])c1cc(-c2ccccc2F)n(S(=O)(=O)c2cccnc2)c1 [Compound I-2a, 1-[5-(2-fluorophenyl)-1-(pyridin-3-yl-sulfonyl)-1H-pyrrol-3-yl]-N-trideuteromethyldideuteromethanamine fumarate] | 95.5 |  |  |  |  |  |  |  |  |  |  |  |  |  | 
4 | CNCc1cc(-c2ccccc2F)n(S(=O)(=O)c2cccnc2)c1 [TAK-438, 1-[5-(2-fluorophenyl)-1-(pyridin-3-yl-sulfonyl)-1H-pyrrol-3-yl]-N-methylmethanamine, reference compound] |  |  |  |  |  |  |  | 45 | 67.3 | 15 | 47.8 | 33.5 | 44.6 | 45 | 
5 | O=C(O)/C=C/C(=O)O.[2H]C([2H])(NC)c1cc(-c2ccccc2F)n(S(=O)(=O)c2cccnc2)c1 [Compound I-1a, 1-[5-(2-fluorophenyl)-1-(pyridin-3-yl-sulfonyl)-1H-pyrrol-3-yl]-N-methyldideuteromethanamine fumarate] | 95.3 | 52.7 | 2.6 ± 0.8 | 153.3 ± 85.9 | 1.8 ± 0.9**^Δ mL | 15.3 ± 12.9***^Δ μmol | significant inhibitory effect |  |  |  |  |  |  |  | Effect on the secretion amount of gastric juice as compared with the model control group ([1]; 2 mg/kg, P<0.01): significant inhibitory effect; Inhibitory effects on secretion amount and total acid amount of gastric juice compared with same dosage of vonoprazan fumarate ([1]; 2 mg/kg, P<0.05): stronger
6 | [2H]C([2H])(NC)c1cc(-c2ccccc2F)n(S(=O)(=O)c2cccnc2)c1 [TAK-438d2, 1-[5-(2-fluorophenyl)-1-(pyridin-3-yl-sulfonyl)-1H-pyrrol-3-yl]-N-methyldideuteromethanamine] |  |  |  |  |  |  |  | 56.4 | 74.9 | 15 | 57.7 | 42.9 | 56.2 | 56.4 | 
